According to patent US20250082570A1, “COMBINATION THERAPY FOR TREATING NON-TUBERCULOUS MYCOBACTERIAL LUNG DISEASE” (priority 2021, published 2025):
Like-named read-outs stand apart in the source and are kept apart here.

System: M abscessus ATCC 19977 Type strain
Test: checkerboard minimum inhibitory concentration (MIC) assay with FICI calculation
Type: cell-based
Settings: for MIC: 168 h; for Active Agent-Y MIC Combination: MIC of the labelled Antiinfective-Y in combination with amikacin; for Definition (interpretation of FICI) / FICI (Fractional Inhibitory Concentration Index): labelled Antiinfective-Y in combination with amikacin
[1] = read-out: Active Agent-Y MIC Alone
[2] = Antiinfective-Y alone, M abscessus ATCC 19977, 37° C., 7 days, absorbance 595 nm, read-out: Active Agent-Y MIC Alone

| Structure (SMILES) | MIC [1] | Active Agent-Y MIC Combination (M abscessus ATCC 19977, 7 days) | Definition (interpretation of FICI) (M abscessus ATCC 19977) | FICI (Fractional Inhibitory Concentration Index) (M abscessus ATCC 19977) | MIC [2] | MIC (amikacin alone (column 12 of the checkerboard plate run with the row's Antiinfective-Y), M abscessus ATCC 19977, 37° C., 7 days, absorbance 595 nm, read-out: Amikacin (Active Agent-X) MIC Alone) | Amikacin (Active Agent-X) MIC Alone (amikacin alone (column 12 of the checkerboard plate run with the row's Antiinfective-Y), M abscessus ATCC 19977, 37° C., 7 days, absorbance 595 nm) |
| --- | --- | --- | --- | --- | --- | --- | --- |
| CC[C@@H](CO)NCCN[C@@H](CC)CO [Ethambutol] | 16 µg/mL | 4 µg/mL | Synergy (<0.5) | 0.38 |  |  |  |
| C[C@@H](O)[C@H]1C(=O)N2C(C(=O)[O-])=C(SC3Cn4cnc[n+]4C3)[C@H](C)[C@H]12 (some centres unmarked) [Biapenem] |  | 0.0625 µg/mL | Synergy (<0.5) | 0.07 | 8 µg/mL |  |  |
| CC[C@H]1OC(=O)[C@H](C)[C@@H](O[C@H]2C[C@@](C)(OC)[C@@H](O)[C@H](C)O2)[C@H](C)[C@@H](O[C@@H]2O[C@H](C)C[C@H](N(C)C)[C@H]2O)[C@](C)(OC)C[C@@H](C)C(=O)[C@H](C)[C@@H](O)[C@]1(C)O [Clarithromycin] |  | 0.25 µg/mL | Additive | 2.50 | 0.5 µg/mL |  |  |
| NCC[C@H](O)C(=O)N[C@@H]1C[C@H](N)[C@@H](O[C@H]2O[C@H](CN)[C@@H](O)[C@H](O)[C@H]2O)[C@H](O)[C@H]1O[C@H]1O[C@H](CO)[C@@H](O)[C@H](N)[C@H]1O [Amikacin] |  |  |  |  |  | 2 µg/mL | 1 µg/mL |
| Cn1nnc(-c2ccc(-c3ccc(N4C[C@H](CO)OC4=O)cc3F)cn2)n1 [Tedizolid] |  | 0.5 µg/mL | Additive | 3.00 | 0.5 µg/mL |  |  |
| C[C@@H](O)[C@H]1C(=O)N2C(C(=O)O)=C(SCCN=CN)C[C@H]12 [Imipenem] |  | 0.25 µg/mL | Synergy (<0.5) | 0.38 | 2 µg/mL |  |  |
| C[C@@H](O)[C@H]1C(=O)N2C(C(=O)O)=C(S[C@@H]3CN[C@H](CNS(N)(=O)=O)C3)[C@H](C)[C@H]12 [Doripenem] |  | 0.25 µg/mL | Synergy (<0.5) | 0.31 | 4 µg/mL |  |  |
| CC(=O)NC[C@H]1CN(c2ccc(N3CCOCC3)c(F)c2)C(=O)O1 [Linezolid] |  | 2 µg/mL | Additive | 3.00 | 2 µg/mL |  |  |
| C[C@@H](O)[C@H]1C(=O)N2C(C(=O)O)=C(SC3CN(C4=NCCS4)C3)[C@H](C)[C@H]12 [Tebipenem] |  | 0.25 µg/mL | Synergy (<0.5) | 0.28 | 8 µg/mL |  |  |
| C[C@H]1COc2c(N3CCN(C)CC3)c(F)cc3c(=O)c(C(=O)O)cn1c23 [Levofloxacin] | 4 µg/mL | 0.0625 µg/mL | Synergy (<0.5) | 0.14 |  |  |  |
| CN(C)c1cc(NC(=O)CNC(C)(C)C)c(O)c2c1C[C@H]1C[C@H]3[C@H](N(C)C)C(O)=C(C(N)=O)C(=O)[C@@]3(O)C(O)=C1C2=O [Tigecycline] | 2 µg/mL | 0.5 µg/mL | Additive | 0.75 |  |  |  |
| COc1c(N2C[C@@H]3CCCN[C@@H]3C2)c(F)cc2c(=O)c(C(=O)O)cn(C3CC3)c12 [Moxifloxacin] | 1 µg/mL | 0.125 µg/mL | Synergy (<0.5) | 0.38 |  |  |  |
| CO[C@H]1/C=C/O[C@@]2(C)Oc3c(C)c(O)c4c(c3C2=O)C2=NC3(CCN(CC(C)C)CC3)NC2=C(NC(=O)/C(C)=C\C=C\[C@H](C)[C@H](O)[C@@H](C)[C@@H](O)[C@@H](C)[C@H](OC(C)=O)[C@@H]1C)C4=O [Rifabutin] |  | 0.0625 µg/mL | Synergy (<0.5) | 0.31 | 1 µg/mL |  |  |
| COc1ccc2cc1Oc1ccc(cc1)C[C@H]1c3cc(c(OC)cc3CCN1C)Oc1c(OC)c(OC)cc3c1[C@H](C2)N(C)CC3 [Tetrandrine] | 64 µg/mL | 8 µg/mL | Synergy (<0.5) | 0.25 |  |  |  |
| COc1nc2ccc(Br)cc2cc1[C@@H](c1ccccc1)[C@@](O)(CCN(C)C)c1cccc2ccccc12 [Bedaquiline] | 2 µg/mL | 0.125 µg/mL | Synergy (<0.5) | 0.09 |  |  |  |
| CO[C@H]1/C=C/O[C@@]2(C)Oc3c(C)c(O)c4c(O)c(c(/C=N/N5CCN(C)CC5)c(O)c4c3C2=O)NC(=O)/C(C)=C\C=C\[C@H](C)[C@H](O)[C@@H](C)[C@@H](O)[C@@H](C)[C@H](OC(C)=O)[C@@H]1C [Rifampicin] | 8 µg/mL | 0.5 µg/mL | Synergy (<0.5) | 0.31 |  |  |  |
| CC(C)/N=c1\cc2n(-c3ccc(Cl)cc3)c3ccccc3nc-2cc1Nc1ccc(Cl)cc1 [Clofazimine] | 2 µg/mL | 0.0625 µg/mL | Synergy (<0.5) | 0.16 |  |  |  |
| C=CC1=C(C(=O)O)N2C(=O)[C@@H](NC(=O)/C(=N\O)c3csc(N)n3)[C@H]2SC1 [Cefdinir] |  | 0.5 µg/mL | Synergy (<0.5) | 0.13 | 8 µg/mL |  |  |
| CN[C@H](CC(C)C)C(=O)N[C@H]1C(=O)N[C@@H](CC(N)=O)C(=O)N[C@H]2C(=O)N[C@H]3C(=O)N[C@H](C(=O)N[C@H](C(=O)O)c4cc(O)cc(O)c4-c4cc3ccc4O)[C@H](O)c3ccc(c(Cl)c3)Oc3cc2cc(c3O[C@@H]2O[C@H](CO)[C@@H](O)[C@H](O)[C@H]2O[C@H]2C[C@](C)(N)[C@H](O)[C@H](C)O2)Oc2ccc(cc2Cl)[C@H]1O [Vancomycin] | 4 µg/mL | 1 µg/mL | Additive | 0.50 |  |  |  |
